Reference: patent US5811452A, “Taxoid reversal agents for drug-resistance in cancer chemotherapy and pharmaceutical compositions thereof” (The Research Foundation of State University of New York, priority 1997, dated 1998)
pIC50: −log10 of the molar value. Read-outs that look alike come from different tables or passages of the source.

Assays:
[1] = test system: drug-resistant breast cancer cells MCF7-R; assay: MDR reversal: cytostatic activity in combination with paclitaxel or doxorubicin; type: cell-based, human; conditions: for % IC50 reduction (taxoid + Paclitaxel): taxoid 1 μM + paclitaxel
Method: ^a Treatment consists of concurrent exposure of MCF7R cells to
reversing agent (1 μM) for 72 h in vitro.

[2] = test system: MCF7-R (mammary carcinoma cells resistant to doxorubicin); assay: Cytotoxicity evaluation (cell growth inhibition, SRB, 72 h); type: cell-based; conditions: read-out: IC50, growth of human tumor cell line MCF7-R (breast)
Method: (§1) Taxoids, thus synthesized, were evaluated for their cytotoxicity against human tumor cell line, A2780 (ovarian carcinoma), A2780-DX5 (ovarian carcinoma resistant to doxorubicin), MCF7 (mammary carcinoma) or MCF7-R (mammary carcinoma cells resistant to doxorubicin), after 72 hours drug exposure according to the methods of Skehon, et al., "J. Nat. Cancer Inst. 82, 1107, 1990". […] Lower numbers indicate higher potency. The data represent the means values of at least three separate experiments. Lower numbers indicate stronger cytotoxicity.
(§2) Assessment of cytotoxicity, i.e., cell growth inhibition, was determined according to the methods of Skehan, et al. as discussed in J. Nat. Cancer Inst. 82, 1107, 1990. Briefly, cells were plated between 400 and 1200 cells/well in 96 well plates and incubated at 37° C. for 15-18 h prior to drug addition to allow attachment of cells. Compounds tested were solubilized in 100% DMSO and further diluted in RPMI-1640 containing 10 mM HEPES. Each cell line was treated with 10 concentrations of compounds (5 log range). After a 72 h incubation, […] of ice-cold 50% TCA was added to each well and incubated for 1 h at 4° C. Plates were then washed 5 times with tap water to remove TCA, low-molecular-weight metabolites and serum proteins. Sulforhodamine B (SRB) (0.4%, […]) was added to each well. Following a 5 minute incubation at room temperature, plates were rinsed 5 times with 0.1% acetic acid and air dried. Bound dye was solubilized with 10 mM Tris Base (pH 10.5) for 5 min on a gyratory shaker. Optical density was measured at 570 nm.

[3] = test system: MCF7 (mammary carcinoma); assay: as above; type: cell-based; conditions: read-out: IC50, growth of human tumor cell line MCF7 (breast)
Method: as §1, §2

[4] = test system: A2780 (ovarian carcinoma); assay: as above; type: cell-based; conditions: read-out: IC50, growth of human tumor cell line A2780 (ovarian)
Method: as §1, §2

[5] = test system: A2780-DX5 (ovarian carcinoma resistant to doxorubicin); assay: as above; type: cell-based; conditions: read-out: IC50, growth of human tumor cell line A2780-DX5 (ovarian)
Method: as §1, §2

[6] = test system: microtubules; conditions: cited from earlier work
[7] = test system: P-glycoprotein mdr 1a; conditions: Taxol-resistant T1 cells; cited from earlier work
[8] = test system: J7 (parent) cells; conditions: cited from earlier work
[9] = test system: P-glycoprotein mdr 1b; conditions: cited from earlier work
[10] = read-out: IC50 (taxoid + Paclitaxel), paclitaxel in presence of taxoid reversing agent (1 μM), 72 h
[11] = 72 h exposure, doxorubicin-resistant
[12] = 72 h exposure, mean of at least three experiments
[13] = Homo sapiens, MCF7R, without reversing agent, 72 h, read-out: IC50 of anticancer drug alone
[14] = Homo sapiens, MCF7R, 72 h exposure, doxorubicin-resistant
[15] = Homo sapiens, A2780, 72 h exposure, mean of at least three experiments
[16] = Homo sapiens, 72 h exposure, doxorubicin-resistant
[17] = Homo sapiens, MCF7, 72 h exposure

Row | Compound | % IC50 reduction (taxoid + Paclitaxel) ([1]; 72 h) [%] | pIC50 [2, 11] | pIC50 ([3]; 72 h exposure) | pIC50 [2, 14] | pIC50 [3, 17] | other results
1 | 7,10-Bis[3-(4-benzoylphenyl)prop-2-enoyl]-10-deacetylbaccatin III [SB-RA-4102] | 99.7 | < 5.00 | < 5.00 |  |  | pIC50 [1, 10]: 8.57
2 | 7-[3-(2-Naphtyl)propanoyl]-13-acetylbaccatin III [SB-RA-30012] | 99.3 | < 5.00 | < 5.00 |  |  | pIC50 [1, 10]: 8.24
3 | 13-(4-Benzoylcinnamoyl)-7,10-bis(2,2,2-trichloroethoxycarbonyl)baccatin III [SB-RA-110] |  | < 5.00 | < 5.00 |  |  | pIC50 [4, 12]: < 5.00; pIC50 [5, 11]: < 5.00
4 | COc1cccc2c1C(=O)c1c(O)c3c(c(O)c1C2=O)C[C@@](O)(C(=O)CO)C[C@@H]3O[C@H]1C[C@H](N)[C@H](O)[C@H](C)O1 [Doxorubicin, reference compound] |  |  |  |  |  | pIC50 [1, 13]: 5.72; pIC50 ([2]; Homo sapiens, MCF7R, 72 h): 5.72; pIC50 ([4]; Homo sapiens, A2780, 72 h): 8.30; pIC50 ([5]; Homo sapiens, 72 h): 6.45; pIC50 ([3]; Homo sapiens, MCF7, 72 h): 7.77
5 | CC(=O)O[C@H]1C(=O)[C@@]2(C)[C@H]([C@H](OC(=O)c3ccccc3)[C@]3(O)C[C@H](OC(=O)[C@H](O)[C@@H](NC(=O)c4ccccc4)c4ccccc4)C(C)=C1C3(C)C)[C@]1(OC(C)=O)CO[C@@H]1C[C@@H]2O [Paclitaxel, reference compound] |  |  |  |  |  | pIC50 ([1]; Homo sapiens, MCF7R, read-out: IC50 of paclitaxel, taxoid at 1 or 3 μM (from 860 to 42~1.6)): 6.07; pIC50 [1, 13]: 6.07; pIC50 ([2]; Homo sapiens, MCF7R, 72 h): 6.07; pIC50 ([3]; Homo sapiens, MCF7, 72 h): 8.77
6 | CC(=O)O[C@@]12CO[C@@H]1C[C@H](O)[C@@]1(C)C(=O)[C@H](O)C3=C(C)[C@@H](OC(=O)/C=C/c4ccc5ccccc5c4)C[C@@](O)([C@@H](OC(=O)c4ccccc4)[C@H]21)C3(C)C [SB-RA-2001, 13-[3-(2-Naphthyl)prop-2-enoyl]-10-deacetylbaccatin III] |  | 5.30 | 5.70 |  |  | pIC50 [4, 12]: 5.59; pIC50 [5, 11]: 5.42
7 | CC(=O)O[C@@]12CO[C@@H]1C[C@H](O)[C@@]1(C)C(=O)[C@H](OC(=O)/C=C/c3ccc(C(=O)c4ccccc4)cc3)C3=C(C)[C@@H](O)C[C@@](O)([C@@H](OC(=O)c4ccccc4)[C@H]21)C3(C)C [SB-RA-4001, 10-[(4-Benzoyl)cinnamoyl]-10-deacetylbaccatin III] | 95 |  |  | < 5.00 | 5.07 | pIC50 [4, 15]: 5.10; pIC50 [5, 16]: 5.00
8 | CC(=O)O[C@H]1C(=O)[C@]2(C)[C@@H](OC(=O)c3ccc4ccccc4c3)C[C@H]3OC[C@@]3(OC(C)=O)[C@H]2[C@H](OC(=O)c2ccccc2)[C@]2(O)C[C@H](O)C(C)=C1C2(C)C [SB-RA-30001, 7-(Naphthalene-2-carbonyl)baccatin III] | 97.5 |  |  | 4.96 | 5.28 | 
9 | CC(=O)O[C@H]1C(=O)[C@]2(C)[C@@H](OC(=O)/C=C/c3ccc4ccccc4c3)C[C@H]3OC[C@@]3(OC(C)=O)[C@H]2[C@H](OC(=O)c2ccccc2)[C@]2(O)C[C@H](O)C(C)=C1C2(C)C [SB-RA-30011, 7-[3-(2-naphthyl)-2-propenoyl]baccatin III] | 96 |  |  | 5.10 | 5.33 | enhancement of the tumor growth inhibitory activity of doxorubicin ([1]; 1 μM taxoid): 92%; % IC50 reduction (taxoid + Doxorubicin) ([1]; taxoid 1 μM + doxorubicin, 72 h): 92%; pIC50 [4, 15]: 5.20; pIC50 [5, 16]: 5.17
10 | CC(=O)O[C@H]1C(=O)[C@]2(C)[C@@H](OC(=O)CCc3ccc4ccccc4c3)C[C@H]3OC[C@@]3(OC(C)=O)[C@H]2[C@H](OC(=O)c2ccccc2)[C@]2(O)C[C@H](O)C(C)=C1C2(C)C [SB-RA-30021, 7-[3-(2-Naphthyl)propanoyl]baccatin III] | 96 |  |  | 5.30 | 5.31 | pIC50 [4, 15]: 5.24; pIC50 [5, 16]: 5.28
11 | CC(=O)O[C@H]1C(=O)[C@]2(C)[C@@H](OC(=O)/C=C/c3ccc(C(=O)c4ccccc4)cc3)C[C@H]3OC[C@@]3(OC(C)=O)[C@H]2[C@H](OC(=O)c2ccccc2)[C@]2(O)C[C@H](O)C(C)=C1C2(C)C [SB-RA-31011, 7-[4-Benzoylcinnamoyl]baccatin III] | 99.8 |  |  | < 5.00 | 4.96 | 
12 | CC(=O)O[C@H]1C(=O)[C@]2(C)[C@@H](OC(=O)/C=C/c3ccc(C(=O)c4ccccc4)cc3)C[C@H]3OC[C@@]3(OC(C)=O)[C@H]2[C@H](OC(=O)c2ccccc2)[C@]2(O)C[C@H](OC(C)=O)C(C)=C1C2(C)C [SB-RA-31012] | 99.7 |  |  | < 5.00 | < 5.00 | 
13 | CC(=O)O[C@H]1C(=O)[C@@]2(C)[C@H]([C@H](OC(=O)c3ccccc3)[C@]3(O)C[C@H](OC(=O)[C@H](O)[C@@H](NC(=O)CCc4ccc(C(=O)c5ccccc5)cc4)c4ccccc4)C(C)=C1C3(C)C)[C@]1(OC(C)=O)CO[C@@H]1C[C@@H]2O [SB-T-5101] |  |  |  |  |  | binding to microtubules [6]: binds to microtubules as expected; binding to P-glycoprotein mdr 1a [7]: binds to both mdr 1a (major) and mdr 1b (minor) in T1 cells; photoaffinity labeling of non-drug resistant cells [8]: no photoaffinity labeling is observed; binding to P-glycoprotein mdr 1b ([9]; Taxol-resistant T1 cells): binds to both mdr 1a (major) and mdr 1b (minor) in T1 cells; binding to P-glycoprotein mdr 1b ([9]; vinblastine-resistant V1 cells): only binds to mdr 1b in V1 cells
